Experimental data from ChEMBL document CHEMBL1201862, “PubChem BioAssay data set” (2004).
Where a name gives a salt, the structure may show the parent alone.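 Dose response: 5 concentrations. Exposure: 48 h. Format: 96-well plates. Endpoint: linear interpolation; highest concentration if not reached. Abbreviation: GI50, concentration required for 50% inhibition of growth.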 Active and inactive are the calls of the source. Cut-off read from the data, not from the text of the source: active = GI50 up to about 1.1 µM and inactive = higher.

Columns and labels:
Assay in all cases: NCI anticancer screen, dose series, 48 h
Malme-3M = system: Malme-3M
SNB-75 = system: SNB-75
HCT-116 = system: HCT-116
Hs-578T = system: Hs-578T
SK-MEL-5 = system: SK-MEL-5
MOLT-4 = system: MOLT-4
SF-295 = system: SF-295
A498 = system: A498
HOP-62 = system: HOP-62
NCI-H226 = system: NCI-H226
SN12C = system: SN12C
HT-29 = system: HT-29
LOX IMVI = system: LOX IMVI
BT-549 = system: BT-549
NCI-H460 = system: NCI-H460
SF-539 = system: SF-539
786-0 = system: 786-0
MDA-MB-435 = system: MDA-MB-435
COLO 205 = system: COLO 205
M19-MEL = system: M19-MEL

Measured: GI50

O=C(Nc1cccc2nsnc12)c1cc2c(cc1Cl)Sc1nccn1S2(=O)=O
inactive: Malme-3M 74.5 µM | SNB-75 8.02 µM | HCT-116 2.77 µM | Hs-578T 4.25 µM | SK-MEL-5 17.9 µM | MOLT-4 2.95 µM | SF-295 14.1 µM | A498 13.6 µM | HOP-62 1.78 µM | NCI-H226 25.9 µM | SN12C 13.6 µM | HT-29 2.74 µM | LOX IMVI 8.43 µM | BT-549 15.1 µM | NCI-H460 2.4 µM | SF-539 3.52 µM | 786-0 15.9 µM | MDA-MB-435 9.62 µM | COLO 205 18 µM

CCP(C)(C)=O
inactive: Malme-3M > 100 µM | SNB-75 > 100 µM | M19-MEL > 100 µM | SK-MEL-5 > 100 µM | MOLT-4 > 100 µM | SF-295 > 100 µM | A498 > 100 µM | HOP-62 > 100 µM | SN12C > 100 µM | HT-29 > 100 µM | LOX IMVI > 100 µM | NCI-H460 > 100 µM | SF-539 > 100 µM | 786-0 > 100 µM | COLO 205 > 100 µM

COC(NC(=O)Nc1ccc(C)cc1)(C(F)(F)F)C(F)(F)F
inactive: Malme-3M 36.3 µM | SNB-75 28.1 µM | HCT-116 29.3 µM | Hs-578T 25 µM | SK-MEL-5 15.6 µM | MOLT-4 9.08 µM | SF-295 26.5 µM | A498 30.3 µM | HOP-62 42.8 µM | NCI-H226 55.8 µM | SN12C 28.1 µM | HT-29 31 µM | LOX IMVI 3.08 µM | BT-549 22.9 µM | NCI-H460 32 µM | SF-539 41.4 µM | 786-0 54.2 µM | MDA-MB-435 30.9 µM | COLO 205 18.7 µM

CCCCCCCCCc1cc(=O)c2c(O)cccc2o1
inactive: Malme-3M 19.3 µM | SNB-75 > 10 µM | HCT-116 30.3 µM | M19-MEL > 10 µM | SK-MEL-5 21 µM | MOLT-4 20.4 µM | SF-295 46.3 µM | HOP-62 > 100 µM | NCI-H226 38.1 µM | SN12C 87.3 µM | HT-29 > 10 µM | LOX IMVI 22.8 µM | NCI-H460 56.2 µM | SF-539 > 100 µM | 786-0 51.4 µM | COLO 205 > 100 µM

NC1=NS(=O)(=O)Nc2[nH]c(-c3ccccc3)nc21
inactive: Malme-3M > 100 µM | SNB-75 > 100 µM | HCT-116 > 100 µM | M19-MEL > 100 µM | SK-MEL-5 > 100 µM | MOLT-4 > 100 µM | SF-295 > 100 µM | NCI-H226 > 100 µM | SN12C > 100 µM | HT-29 > 100 µM | LOX IMVI > 100 µM | NCI-H460 > 100 µM | SF-539 > 100 µM | 786-0 > 100 µM | COLO 205 > 100 µM

C[N+](C)(C)CC(=O)N/N=C/c1oc(-c2cccc([N+](=O)[O-])c2)c(-c2cccc([N+](=O)[O-])c2)c1[N+](=O)[O-]
inactive: Malme-3M > 100 µM | HCT-116 32.7 µM | M19-MEL 38.5 µM | SK-MEL-5 72.3 µM | MOLT-4 > 10 µM | A498 > 100 µM | HOP-62 > 100 µM | SN12C > 100 µM | HT-29 > 100 µM | NCI-H460 > 100 µM | SF-539 > 100 µM | 786-0 48.1 µM | COLO 205 > 100 µM

COC(=O)Cc1c([C@H]2[C@H](CC(=O)OC)c3ccccc3N2C(C)=O)[nH]c2ccccc12
inactive: Malme-3M > 100 µM | SNB-75 > 100 µM | HCT-116 > 100 µM | Hs-578T > 100 µM | SK-MEL-5 > 100 µM | MOLT-4 54.8 µM | SF-295 72.8 µM | A498 > 100 µM | HOP-62 > 100 µM | NCI-H226 > 100 µM | SN12C > 100 µM | HT-29 > 100 µM | LOX IMVI > 100 µM | BT-549 67.6 µM | NCI-H460 96.8 µM | SF-539 > 100 µM | 786-0 > 100 µM | MDA-MB-435 > 100 µM | COLO 205 67.1 µM

CC(=O)c1c(P(=O)(OC(C)C)OC(C)C)nn(-c2ccc([N+](=O)[O-])cc2)c1C
inactive: Malme-3M > 100 µM | SNB-75 > 10 µM | HCT-116 > 100 µM | M19-MEL > 100 µM | SK-MEL-5 > 100 µM | MOLT-4 > 100 µM | SF-295 > 100 µM | A498 > 100 µM | HOP-62 > 100 µM | SN12C > 100 µM | HT-29 > 100 µM | NCI-H460 > 100 µM | SF-539 > 100 µM | COLO 205 > 100 µM

N/N=C1\C(OC(=O)Nc2cccc(Cl)c2)=Nc2ccccc21
inactive: Malme-3M 12.1 µM | SNB-75 6.22 µM | HCT-116 4.67 µM | Hs-578T 16.1 µM | SK-MEL-5 11.5 µM | MOLT-4 6.49 µM | SF-295 2.35 µM | A498 11.4 µM | HOP-62 2.75 µM | NCI-H226 15.3 µM | SN12C 4.95 µM | HT-29 6.59 µM | LOX IMVI 7.83 µM | BT-549 7.96 µM | NCI-H460 6.9 µM | SF-539 17.1 µM | 786-0 6.64 µM | MDA-MB-435 8.57 µM | COLO 205 6.95 µM

CC(=O)Nc1ccc(Cl)c(Cl)c1
inactive: Malme-3M > 100 µM | SNB-75 > 100 µM | HCT-116 > 100 µM | M19-MEL > 100 µM | MOLT-4 > 100 µM | SF-295 > 100 µM | HOP-62 > 100 µM | NCI-H226 > 100 µM | SN12C > 100 µM | HT-29 > 100 µM | LOX IMVI > 100 µM | NCI-H460 > 100 µM | SF-539 > 100 µM | 786-0 > 100 µM | COLO 205 > 100 µM

CC[C@@H]1C(=O)OC[C@@H]1Cc1cncn1C [PILOCARPINE HYDROCHLORIDE]
inactive: Malme-3M > 100 µM | SNB-75 > 100 µM | HCT-116 > 100 µM | Hs-578T > 100 µM | SK-MEL-5 > 100 µM | MOLT-4 > 100 µM | SF-295 > 100 µM | A498 > 100 µM | HOP-62 > 100 µM | NCI-H226 > 100 µM | SN12C > 100 µM | HT-29 > 100 µM | LOX IMVI > 100 µM | BT-549 > 100 µM | NCI-H460 > 100 µM | SF-539 > 100 µM | 786-0 > 100 µM | MDA-MB-435 > 100 µM | COLO 205 > 100 µM

O=C([O-])C(O)C(O)C(=O)O.[K+] (configuration not stated) [POTASSIUM HYDROGENTARTRATE]
inactive: Malme-3M > 100 µM | SNB-75 > 100 µM | HCT-116 > 100 µM | Hs-578T > 100 µM | SK-MEL-5 > 100 µM | MOLT-4 > 100 µM | SF-295 > 100 µM | A498 > 100 µM | HOP-62 > 100 µM | NCI-H226 > 100 µM | SN12C > 100 µM | HT-29 > 100 µM | LOX IMVI > 100 µM | BT-549 > 100 µM | NCI-H460 > 100 µM | SF-539 > 100 µM | 786-0 > 100 µM | MDA-MB-435 > 100 µM | COLO 205 > 100 µM
